Assay results as given in patent US20050256103A1, “Indole derivative having piperidine ring” (Eisai Co., Ltd., priority 2004, published 2005).
Where two headings read alike, the source gives them in different places.

Key:
5-HT1A receptor = molecular target: T1, 5-HT1A receptor (Sus scrofa, UniProt A0A4X1UTF5); assay: Affinity for serotonin 1A receptor: inhibition of [3H]MPPF binding in swine hippocampal membrane fraction; settings: for IC50: swine hippocampal membrane, 37°C 30 min; for L/H ratio: low affinity IC50 divided by high affinity IC50, 1 or smaller = no intrinsic activity, 2 or greater = intrinsic activity
T1 construct: Swine hippocampus was homogenized in a 50 mM Tris-Hcl buffer; from tissue; host or cells: swine hippocampus, membrane fraction
T1 sequence (A0A4X1UTF5 1-422): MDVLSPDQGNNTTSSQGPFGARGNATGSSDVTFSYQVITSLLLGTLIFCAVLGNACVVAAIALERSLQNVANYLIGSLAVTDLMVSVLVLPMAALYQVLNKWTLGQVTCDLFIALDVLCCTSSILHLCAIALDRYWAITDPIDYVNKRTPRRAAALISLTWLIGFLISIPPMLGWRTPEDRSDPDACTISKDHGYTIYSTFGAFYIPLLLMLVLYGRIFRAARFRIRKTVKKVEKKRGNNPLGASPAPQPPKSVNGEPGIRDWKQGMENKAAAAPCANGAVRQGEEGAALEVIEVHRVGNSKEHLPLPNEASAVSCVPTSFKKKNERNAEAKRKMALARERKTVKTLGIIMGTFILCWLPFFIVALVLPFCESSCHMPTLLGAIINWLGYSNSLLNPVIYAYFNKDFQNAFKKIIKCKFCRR
Method in brief: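 Swine hippocampal membranes incubated 30 min at 37 °C with 0.5 nM [3H]MPPF and test compound in 50 mM Tris-HCl pH 7.4, 1% DMSO, with 10 mM MgCl2 (G-protein-coupled, high-affinity state) or 1 mM Gpp(NH)p (uncoupled, low-affinity state). Bound radioactivity measured by filtration and scintillation counting; nonspecific binding defined with 10 μM WAY-100,635. IC50 in each state; low/high IC50 ratio taken as an estimate of intrinsic activity.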

serotonin 1A receptor = molecular target: T2, serotonin 1A receptor (Mus musculus, UniProt Q64264); assay: Antagonistic effect on serotonin 1A receptor agonist (8-OH-DPAT)-induced hypothermia in mouse; format: in vivo; settings: for ED50: CD-1 (ICR) male mice, inhibition of hypothermia by 8-OH-DPAT 0.5 mg/kg sc, test substance 15 minutes before agonist
T2 construct: into the rectum of CD-1 (ICR) male mice (25-45 g); from tissue; host or cells: living CD-1 (ICR) male mice (in vivo)
T2 sequence (Q64264 1-421): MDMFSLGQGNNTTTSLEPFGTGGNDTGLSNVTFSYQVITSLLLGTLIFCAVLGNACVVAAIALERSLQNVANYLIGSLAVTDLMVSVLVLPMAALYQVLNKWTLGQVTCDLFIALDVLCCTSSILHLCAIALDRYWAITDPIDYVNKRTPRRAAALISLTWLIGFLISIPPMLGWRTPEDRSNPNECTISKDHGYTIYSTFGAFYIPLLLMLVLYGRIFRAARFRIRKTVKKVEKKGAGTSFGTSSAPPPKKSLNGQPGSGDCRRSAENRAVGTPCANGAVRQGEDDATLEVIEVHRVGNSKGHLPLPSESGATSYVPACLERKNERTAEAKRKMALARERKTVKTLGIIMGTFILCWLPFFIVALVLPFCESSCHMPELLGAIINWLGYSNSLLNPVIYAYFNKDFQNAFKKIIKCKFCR
Method in brief: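 CD-1 (ICR) male mice, 25-45 g; rectal temperature by thermistor probe at about 2 cm depth. Test substance given 15 min before s.c. 8-OH-DPAT […]; antagonism scored as inhibition of the induced hypothermia.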

[1] = tested on: urinary reflex of Sprague-Dawley female rats; assay: Inhibitory action against accentuated urinary reflex of rat due to destruction of the superior colliculus (cystometrogram); format: in vivo; settings: iv, rat with superior colliculus lesion
Description: (1) In the present test, Sprague-Dawley female rates (200-350 g) were used. The rats were subjected to median incision of the abdomen under anesthesia. Thereafter, a hole with a minor diameter was made on the head portion of the bladder, and a catheter used for measurement of an intravesical pressure was placed therein. A catheter used for administration of a test substance was placed in the femoral vein. These catheters were fixed at the occipital region of the rat through the subcutis. One day later, the urinary reflex of the rats was measured with a cystometrogram. Thereafter, the rats were fixed on a brain stereotaxis apparatus under anesthesia, and then subjected to median incision of the scalp. […] Thereafter, electric current was applied (65° C., 4 minutes), so as to damage the brain tissues. After completion of the operation, when the rat awakened from anesthesia, cystometrogram was conducted again to confirm the enhanced state of urinary reflex. A test substance was administered through the catheter placed in the femoral vein, and the action of the test substance to the urinary reflex was evaluated. In addition, the effects of several test substances were compared using the maximal reaction (Emax).

[2] = [3H]MPPF 0.5 nM, receptor in high affinity (G-protein binding, MgCl2 10 mM) state, read-out: High affinity IC50
[3] = [3H]MPPF 0.5 nM, receptor in low affinity (G-protein non-binding, Gpp(NH)p 1 mM) state, read-out: Low affinity IC50

Structure (SMILES)	IC50 (5-HT1A receptor; [2])	IC50 (5-HT1A receptor; [3])	L/H ratio (5-HT1A receptor)	ED50 (serotonin 1A receptor)	Bladder capacity Emax ([1]; dose 0.03 mg/kg)	IC50 (5-HT1A receptor; High affinity IC50, [3H]MPPF 0.5 nM, receptor in high affinity (G-protein binding, MgCl2 10 mM) state)	IC50 (5-HT1A receptor; Low affinity IC50, [3H]MPPF 0.5 nM, receptor in low affinity (G-protein non-binding, Gpp(NH)p 1 mM) state)	IC50 (5-HT1A receptor; read-out: Low affinity IC50, [3H]MPPF 0.5 nM, receptor in low affinity (G-protein non-binding, Gpp(NH)p 1 mM) state)	affinity for 5-HT1A (5-HT1A receptor; result in words)	antagonistic effect against the receptor (serotonin 1A receptor; result in words)	Bladder capacity Emax ([1]; dose 0.01 mg/kg)
COc1ccc2nc(C)oc2c1CCN1CCC(n2ccc3ccc(C(N)=O)cc32)CC1 [Compound 3, 1-{1-[2-(6-methoxy-2-methylbenzoxazol-7-yl)ethyl]piperidin-4-yl}-1H-indole-6-carboxamide]	0.46 nM	0.34 nM	0.7	0.18 mg/kg, sc	62%						
COc1cc2oc(C)nc2cc1CCN1CCC(n2ccc3ccc(C(N)=O)cc32)CC1 [Compound 4, 1-{1-[2-(6-methoxy-2-methylbenzoxazol-5-yl)ethyl]piperidin-4-yl}-1H-indole-6-carboxamide]	0.17 nM	0.15 nM	0.9	0.1 mg/kg, sc	107%						
COc1cc2cccnc2cc1CCN1CCC(n2ccc3ccc(C(N)=O)cc32)CC1 [Compound 51, 1-{1-[2-(6-methoxyquinolin-7-yl)ethyl]piperidin-4-yl}-1H-indole-6-carboxamide]			0.9	0.66 mg/kg, sc		0.18 nM	0.17 nM				
NC(=O)c1ccc2ccn(C3CCN(CCc4ccc(F)cc4)CC3)c2c1 [Compound A, reference compound]	0.1 nM		3.7	>1 mg/kg, sc				0.5 nM	has affinity	weak	−36%
